# Source: publication PMC9848421, “Increased brain uptake of pterostilbene loaded folate modified micellar delivery system” (Drug Delivery, 2022)
# Experiments:
# [1] = In vitro drug release by dialysis method; format: physicochemical; details: PBS pH 7.4 containing 0.3% Tween 80
# Protocol: With free Pt acetone solution as control, in vitro release of Pt from F-Pt/M formulation was studied by the dialysis method (Khan et al., [2020]; Rubab et al., [2021]; Yang et al., [2021]). Briefly, 1 mL of samples, equivalent to 0.8 mg drug, were filled into dialysis bags (molecular weight cutoff: 3500 Da) and dialyzed against 1,000 mL of phosphate buffer solution of pH values 7.4 (containing 0.3% Tween 80) to mimic drug release in normal tissues/blood. At the desired time intervals, 1 mL of release medium was withdrawn and replaced with 1 mL of fresh medium. The amount of released Pt was measured by spectrophotometer (Thermo Scientific Inc., Finland) with excitation wavelength at 330 nm and emission wavelength at 374 nm.
# In order to understand the kinetic model of Pt release from F-Pt/M, zero-order, first-order and Higuchi models were fitted, and the highest adjusted R^2 value was used as the criterion for model selection.
# [2] = system: A172 cells; assay: In vitro cytotoxicity assay (CCK-8); format: cell-based; details: Homo sapiens, A 172, 48 h incubation
# Protocol: Human glioblastoma A172 cells (Nanjing KeyGen Biotech Co., Ltd., Nanjing, China) which overexpress folate receptor (Weitman et al., [1992]) were used. Cells were routinely cultured in DMEM medium (Invitrogen, Grand Island, NY, USA) supplemented with 10% fetal bovine serum (Gibco Life Science, Grand Island, NY, USA) and 1% streptomycin/penicillin in a humidified atmosphere of 5% CO2 at 37 °C. Cell passages were carried out according to the manufacturer’s instructions.
# To evaluate the inhibitory effects of Pt in various formulations on A172 cells, cytotoxicity assay was carried out with CCK-8 kits. Cells were seeded into 96-well plates at a density of 5,000 cells per well, followed by incubation for 24 h. Cells were treated with free Pt solution (free Pt), Pt loaded micelles (Pt/M), folate modified Pt loaded micelles (F-Pt/M) and blank micelles (BM) at equivalent drug concentrations ranging from 5 μM to 100 μM and further incubated for 48 h. […] After 2 h of incubation at 37 °C, the absorbance intensity was measured by a microplate reader (Varioskan LUX; Thermo Scientific Inc., Vantaa, Finland) at 450 nm. Cell viability was calculated by the ratio between the fluorescence absorbance of the cells treated with various Pt formulations (or blank micelles) and that of the cells incubated with the culture medium only. The IC50 values were calculated by using SPSS 22.0 (IBM Corp., Armonk, NY).
# [3] = system: red blood cells (RBCs); assay: In vitro hemolysis assay; format: cell-based, SD rats; details: 37 °C, 1 h
# Protocol: The hemocompatibility of F-Pt/M was investigated by hemolysis assay (Valenzuela-Oses et al., [2017]). Fresh SD rats blood was diluted by physiological saline, and red blood cells (RBCs) were collected by centrifugation at 1,200 rpm for 5 min. Following carefully washing and diluting, RBC suspension in normal saline (v/v, 2%) was prepared for hemolysis study. Pt loaded F-Pt/M and free Pt at different drug concentrations were added and mixed by vortex. Then, the samples were incubated at 37 °C for 1 h and after that were centrifuged at 3,000 rpm for 10 min. The supernatant was collected and spectrophotometrically measured on a microplate plate reader (Varioskan LUX, Thermo Scientific Inc., Vantaa, Finland) at 540 nm. Double distilled water and normal saline were employed as positive and negative control, respectively. The hemolysis ratio (HR) of RBCs was calculated using the following equation: (4) HR (%) = (As– A0)/(A100– A0) × 100
# Where, As is the absorbance of sample, A0 is the absorbance of negative control and A100 is the absorbance of positive control.
# [4] = Brain targeting and brain distribution study in rats; format: in vivo, SD rats; details: single i.v. 3 mg/kg; for Cmax / Tmax / half-life: male, SD, rat, iv
# Protocol: Male SD rats weighing 200–250 g (Experimental Animal Center of Dalian Medical University, China) were maintained in standard conditions on a 14 h light/10 h dark cycle provided with food and water ad libitum prior to experimental procedures. All animal experimental protocols were conducted with an approval by the Institutional Animal Care and Use Committee at Dalian Medical University, Dalian, China (Ethics Committee approval number: SCXK 2018-0003) as well as in accordance with the recommendations and policies of the National Institutes of Health (NIH) guide for the care and use of laboratory animals (NIH Publications No. 8023, revised 1978).
# Rats were randomly divided into two groups of 24 animals each. Each group received either freshly prepared control free Pt solution in DMSO (10%) in saline solution or formulation of F-Pt/M at a dose equivalent to 3 mg/kg of drug intravenously through lateral tail vein. From each group, three rats were sacrificed at intervals of 5, 15, 30, 45, 60, 90, 120 and180 min post dose. At each time point, blood sample was withdrawn and centrifuged at 3,500 rpm at 4 °C for 10 min. At the same time, the brain sample was harvested, weighed, and homogenized in PBS after cardiac perfusion with 0.9% normal saline solution. Samples were stored at −80 °C until analysis.
# Pt from both brain and plasma samples was extracted by liquid-liquid extraction method. Briefly, 20 µL of internal standard working solution (resveratrol, 250 ng/ml) was added to 200 µL aliquot of plasma or brain sample. After 30 seconds of vortexing, 1 mL of extraction solvent, methyl tertiary butyl ether (MTBE) was added. Afterwards, the sample was mixed for 1 min plus centrifugation at 1,000 rpm for 5 min, the supernatant organic layer was carefully transferred and dried using nitrogen gas with gentle heat at 40 °C. The residue was reconstituted with 400 µL of mobile phase and centrifuged at 12,000 rpm for 10 min. The supernatant was transferred to an auto-sampler vial and 10 µL was then injected into the LC-MS/MS system for analysis. An LC-MS/MS analysis method reported by Ferrer (Ferrer et al., [2005]) was employed for the determination of Pt concentration.
# Pharmacokinetic parameters, such as Cmax (maximum drug concentration), Tmax (the time to Cmax) and AUC0-t (area under plasma concentration-time curve), were calculated by DAS 2.0 (Drug and Statistics ver 2.0, China). To examine the blood-brain barrier penetration (P) of Pt, the following formula was employed (Yang et al., [2021]): (5) P=AUCbrain/AUCplasma
# For brain targeting evaluation, DTI (drug targeting index) was determined using the following equation (Katekar et al., [2020]): (6) DTI = (AUCbrain/AUCplasma)test/(AUCbrain/AUCplasma)control
# [5] = set-up: method as in Liu et al., 2020; details: crude Pt; ref Liu et al., 2020; cited from earlier work
smiles,measurement,setting,value
"COc1cc(/C=C/c2ccc(O)cc2)cc(OC)c1 [free Pt, 3,5-dimethoxy-4′-hydroxy-trans-stilbene]",time over which the drug was released,[1],≤ 5 h
same,IC50,[2],24.4 µM
same,HR (hemolysis ratio),[3]; high concentration of 0.5 mg/mL,11.23%
same,HR (hemolysis ratio),[3]; low concentration of 0.17 mg/mL,6.46%
same,HR (hemolysis ratio),[3]; medium concentration of 0.33 mg/mL,10.39%
same,AUC0-t,[4]; brain,4369.66 ± 289.88 µg·min/L
same,Cmax,[4]; brain,78.1 ± 13.9 ng/mL
same,Tmax,[4]; brain,35 min
same,half-life,[4]; brain,22.4 ± 2.84 min
same,Cmax,[4]; plasma,221 ± 21.6 ng/mL
same,Tmax,[4]; plasma,5 min
same,half-life,[4]; plasma,114 ± 29.2 min
same,AUC0-t,[4]; plasma,10107.80 ± 976.65 µg·min/L
same,solubility in water,[5],about 21 µg/mL
